Values belong to the molecule of their own block, whether it stands above or below them.
Assays:
AcbU = target: T1, AcbU (Actinoplanes sp. SE50/110, UniProt Q27GS3); test: PK/LDH coupled assay, A340; LC-MS of product; assay type: biochemical; details: ATP […], MgCl2 […], Tris-HCl pH […] °C; substrate […]
T1 construct: recombinant from pRSET-B in E. coli BL21(DE3)/pLysS, Ni-NTA purified
T1 sequence (Q27GS3 1-492): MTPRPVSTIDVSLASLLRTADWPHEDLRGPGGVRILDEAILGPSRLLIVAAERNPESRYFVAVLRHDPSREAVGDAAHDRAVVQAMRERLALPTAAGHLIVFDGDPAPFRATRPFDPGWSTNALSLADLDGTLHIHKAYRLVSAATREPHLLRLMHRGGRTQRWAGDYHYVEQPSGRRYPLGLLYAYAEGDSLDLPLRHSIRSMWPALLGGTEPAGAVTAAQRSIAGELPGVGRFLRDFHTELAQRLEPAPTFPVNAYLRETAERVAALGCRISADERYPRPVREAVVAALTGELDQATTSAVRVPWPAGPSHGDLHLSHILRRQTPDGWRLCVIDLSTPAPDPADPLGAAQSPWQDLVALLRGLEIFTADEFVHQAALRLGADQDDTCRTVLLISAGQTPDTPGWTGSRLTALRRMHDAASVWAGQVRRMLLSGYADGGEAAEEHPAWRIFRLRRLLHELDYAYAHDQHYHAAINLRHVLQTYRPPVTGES

ValC = target: T2, ValC (Streptomyces hygroscopicus, UniProt Q3T6E2); test: preparative phosphorylation, conversion by PK/LDH assay; assay type: biochemical; details: ATP 6 mM, MgCl2 5 mM, Tris-HCl pH 7.5, 30 °C, 6 h
T2 construct: recombinant from pRSETB-valC in E. coli BL21(DE3)/pLysS, Ni-NTA purified
T2 sequence (Q3T6E2 1-351): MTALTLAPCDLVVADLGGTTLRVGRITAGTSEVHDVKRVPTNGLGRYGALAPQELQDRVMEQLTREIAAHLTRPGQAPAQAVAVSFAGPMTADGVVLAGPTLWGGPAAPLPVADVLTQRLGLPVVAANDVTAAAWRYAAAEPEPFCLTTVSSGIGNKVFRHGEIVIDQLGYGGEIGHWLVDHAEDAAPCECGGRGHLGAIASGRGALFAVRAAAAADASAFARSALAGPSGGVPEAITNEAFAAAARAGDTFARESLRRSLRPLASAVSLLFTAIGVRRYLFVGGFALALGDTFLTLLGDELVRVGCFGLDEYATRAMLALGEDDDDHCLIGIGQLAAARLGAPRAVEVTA

AcbK = target: T3, AcbK (Actinoplanes sp. SE50/110, UniProt Q8RMD4); test: as above; assay type: biochemical; details: ATP 6 mM, MgCl2 5 mM, Tris-HCl pH 7.5, 30 °C, 6 h
T3 construct: recombinant from pET28b in E. coli BL21(DE3)/pLysS, Ni-NTA purified
T3 sequence (Q8RMD4 whole entry): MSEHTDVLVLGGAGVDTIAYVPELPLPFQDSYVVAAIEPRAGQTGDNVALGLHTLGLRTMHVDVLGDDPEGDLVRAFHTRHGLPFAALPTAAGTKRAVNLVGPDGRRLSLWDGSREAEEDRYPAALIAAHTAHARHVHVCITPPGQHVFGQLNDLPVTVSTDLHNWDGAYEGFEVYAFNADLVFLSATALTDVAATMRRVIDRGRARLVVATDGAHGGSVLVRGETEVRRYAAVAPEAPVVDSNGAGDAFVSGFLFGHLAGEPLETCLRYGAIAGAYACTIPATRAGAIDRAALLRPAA

AcbS = target: T4, AcbS (Actinoplanes sp. SE50/110, UniProt Q27GS2); test: LC-QTOF/MS and MS/MS of product acarbose; assay type: biochemical; details: GDP-V generated in situ by AcbR from V1P and GTP; 4-aminoDGG […], MgCl2 […], pH […] °C, […] h
T4 construct: recombinant from pRSET-B in E. coli BL21(DE3)/pLysS, Ni-NTA purified
T4 sequence (Q27GS2 1-709): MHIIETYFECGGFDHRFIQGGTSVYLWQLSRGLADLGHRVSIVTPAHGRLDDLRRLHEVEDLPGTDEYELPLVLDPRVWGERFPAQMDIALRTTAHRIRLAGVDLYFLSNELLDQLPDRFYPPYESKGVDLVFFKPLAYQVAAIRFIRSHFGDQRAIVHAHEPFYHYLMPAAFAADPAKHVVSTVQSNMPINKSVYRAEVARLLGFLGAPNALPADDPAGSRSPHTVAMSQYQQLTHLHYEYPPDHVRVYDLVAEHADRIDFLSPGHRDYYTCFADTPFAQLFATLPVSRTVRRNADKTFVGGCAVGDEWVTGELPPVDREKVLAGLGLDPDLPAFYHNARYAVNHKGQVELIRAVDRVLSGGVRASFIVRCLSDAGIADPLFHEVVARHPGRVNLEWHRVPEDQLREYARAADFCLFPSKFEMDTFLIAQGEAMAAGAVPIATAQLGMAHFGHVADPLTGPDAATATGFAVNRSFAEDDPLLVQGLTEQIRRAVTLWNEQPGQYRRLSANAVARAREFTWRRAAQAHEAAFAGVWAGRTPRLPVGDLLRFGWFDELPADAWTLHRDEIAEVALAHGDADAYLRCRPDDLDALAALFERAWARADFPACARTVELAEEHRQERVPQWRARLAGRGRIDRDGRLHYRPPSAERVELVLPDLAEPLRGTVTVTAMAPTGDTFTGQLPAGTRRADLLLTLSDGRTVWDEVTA

[1] = test system: O=P(O)(O)OCC1=C[C@H](OP(=O)(O)O)[C@H](O)[C@@H](O)[C@@H]1O; test: purified protein; details: Tris-HCl 20 mM pH 7.5, 30 °C, AcbJ 1.0 µM
[2] = test system: O=P(O)(O)O[C@H]1C=C(CO)[C@@H](O)[C@H](O)[C@H]1O; test: purified protein; details: GTP 1 mM, MgCl2 1 mM, Tris-HCl pH 7.5, 30 °C, AcbR 1.0 µM

PK/LDH coupled assay, A340; LC-MS of product (AcbU): AcbU can also phosphorylate valienol (V)
Molecule: OCC1=C[C@H](O)[C@H](O)[C@@H](O)[C@@H]1O [V]
preparative phosphorylation, conversion by PK/LDH assay (ValC): phosphorylation of synthetically prepared valienol using the cyclitol kinase ValC

Molecule: C[C@H]1O[C@H](O[C@H]2[C@H](O)[C@@H](O)[C@@H](O[C@H]3[C@H](O)[C@@H](O)C(O)O[C@@H]3CO)O[C@@H]2CO)[C@H](O)[C@@H](O)[C@@H]1N[C@H]1C=C(CO)[C@@H](O)[C@H](O)[C@H]1O (stereo partly drawn) [compound 1, acarbose]
preparative phosphorylation, conversion by PK/LDH assay (AcbK): prepared enzymatically from acarbose and ATP using the acarbose kinase AcbK

Molecule: O=P(O)(O)OCC1=C[C@H](O)[C@H](O)[C@@H](O)[C@@H]1O [compound 12, V7P]
PK/LDH coupled assay, A340; LC-MS of product (AcbU): V7P is a preferred substrate for AcbU to produce V1,7PP

Molecule: Nc1nc2c(ncn2[C@@H]2O[C@H](COP(=O)(O)OP(=O)(O)O[C@H]3C=C(CO)[C@@H](O)[C@H](O)[C@H]3O)[C@@H](O)[C@H]2O)c(=O)[nH]1 [compound 16, GDP-V]
LC-QTOF/MS and MS/MS of product acarbose (AcbS): incubation of recombinant AcbS with GDP-V (generated in situ

Molecule: AcbJ (Actinoplanes sp. SE50/110)
Km [1]: 817 ± 168 µM
kcat [1]: 0.367 ± 0.067 s⁻¹

Molecule: AcbR (Actinoplanes sp. SE50/110)
Km [2]: 412 ± 83 µM
kcat [2]: 0.233 ± 0.017 s⁻¹
